Test results taken from ChEMBL document CHEMBL4177762, “Combined Approach of Backbone Amide Linking and On-Resin N-Methylation for the Synthesis of Bioactive and Metabolically Stable Peptides” (J Med Chem, 2018).
≈ marks a conversion by molar mass, not a printed value. Calls of active or inactive are those of the source. The rule behind the calls is not given here. Non-standard residues stand in square brackets, D forms with d. Residues, ends and D or L forms follow the SMILES beside them. *: point of attachment. NH(2-(1-naphthyl)ethyl) = c1ccc2c(CCN*)cccc2c1; Tryptamide = c1ccc2c(CCN*)c[nH]c2c1; NMeF = CN[C@@H](Cc1ccccc1)C(=O)O; NMeL = CN[C@@H](CC(C)C)C(=O)O; NHPhenethyl = c1ccc(CCN*)cc1; NMeV = CN[C@H](C(=O)O)C(C)C; NMeC = CN[C@@H](CS)C(=O)O; NMeA = CN[C@@H](C)C(=O)O

Key:
[1] = test system: Trypanosoma brucei rhodesiense; experiment: Antiprotozoal activity against trypomastigote stage of Trypanosoma brucei rhodesiense STIB900 after 72 hrs by Alamar Blue assay; format: functional, organism-based; settings: for IC50: STIB900, 72 h
Plasmodium falciparum = experiment: Antiprotozoal activity against IEF stage of Plasmodium falciparum NF54 after 48 hrs by [3H]-hypoxanthine incorporation assay; format: functional, organism-based
Staphylococcus aureus [2] = experiment: Antibacterial activity against Staphylococcus aureus ATCC 29213 assessed as growth inhibition up to 128 ug/ml; format: functional, organism-based
Staphylococcus aureus [3] = experiment: Antibacterial activity against methicillin-resistant Staphylococcus aureus ATCC 43300 assessed as growth inhibition up to 128 ug/ml; format: functional, organism-based
Enterococcus faecalis = experiment: Antibacterial activity against Enterococcus faecalis ATCC 29212 assessed as growth inhibition up to 128 ug/ml; format: functional, organism-based
Micrococcus luteus = experiment: Antibacterial activity against Micrococcus luteus ATCC 9341 assessed as growth inhibition up to 128 ug/ml; format: functional, organism-based
Escherichia coli = experiment: Antibacterial activity against Escherichia coli ATCC 25922 assessed as growth inhibition up to 128 ug/ml; format: functional, organism-based
Pseudomonas aeruginosa = experiment: Antibacterial activity against Pseudomonas aeruginosa ATCC 27853 assessed as growth inhibition up to 128 ug/ml; format: functional, organism-based
[4] = Passive permeability of the compound at 500 uM after 5 hrs by PAMPA; format: ADME
[5] = Half life in Galleria mellonella hemolymph plasma at 0.5 mM by HPLC-MS method; format: ADME, cell-free

CN[C@@H](CC(C)C)C(=O)N(C)[C@@H](CC(C)C)C(=O)N(C)[C@@H](CC(C)C)C(=O)N(C)[C@@H](CC(C)C)C(=O)N(C)[C@@H](CC(C)C)C(=O)N(C)[C@@H](CC(C)C)C(=O)N(C)[C@@H](CC(C)C)C(=O)NCCc1ccccc1 (H-[NMeL][NMeL][NMeL][NMeL][NMeL][NMeL][NMeL]-NHPhenethyl)
Activity [1]: Active

CN[C@@H](CC(C)C)C(=O)N(C)[C@H](CC(C)C)C(=O)N(C)[C@@H](CC(C)C)C(=O)N(C)[C@@H](CC(C)C)C(=O)NCCc1ccccc1
IC50 [1]: 1.4 to 2.1 µg/mL (≈ 2.22 to 3.33 µM)

CN[C@H](C(=O)N(C)[C@H](C(=O)N(C)[C@H](C(=O)N(C)[C@@H](CS)C(=O)NCCc1ccccc1)C(C)C)C(C)C)C(C)C (H-[NMeV][NMeV][NMeV][NMeC]-NHPhenethyl)
IC50 [1]: 3 µg/mL (≈ 5.19 µM)

CN[C@@H](CC(C)C)C(=O)N(C)[C@@H](CC(C)C)C(=O)N(C)[C@@H](CC(C)C)C(=O)N(C)[C@@H](C)C(=O)NCCc1ccccc1 (H-[NMeL][NMeL][NMeL][NMeA]-NHPhenethyl)
IC50 (Plasmodium falciparum): 31 µg/mL (≈ 52.7 µM)

CN[C@@H](CC(C)C)C(=O)N(C)[C@@H](CC(C)C)C(=O)N(C)[C@@H](CC(C)C)C(=O)N(C)[C@@H](CC(C)C)C(=O)N(C)[C@@H](CC(C)C)C(=O)NCCc1ccccc1
Activity [1]: Active

CC(C)C[C@@H](N)C(=O)N[C@H](CC(C)C)C(=O)N[C@H](CC(C)C)C(=O)N[C@H](CC(C)C)C(=O)NCCc1ccccc1
IC50 [1]: 1.4 to 2.1 µg/mL (≈ 2.44 to 3.66 µM)

CN[C@@H](Cc1ccccc1)C(=O)N(C)[C@@H](Cc1ccccc1)C(=O)N(C)[C@@H](Cc1ccccc1)C(=O)N(C)[C@@H](Cc1ccccc1)C(=O)N(C)[C@@H](Cc1ccccc1)C(=O)NCCc1ccccc1 (H-[NMeF][NMeF][NMeF][NMeF][NMeF]-NHPhenethyl)
IC50 (Plasmodium falciparum): 0.2 µg/mL (≈ 0.216 µM) | Activity [1]: Active | growth inhibition (GI) (Staphylococcus aureus [2]): inactive | growth inhibition (GI) (Staphylococcus aureus [3]): inactive | growth inhibition (GI) (Enterococcus faecalis): inactive | growth inhibition (GI) (Micrococcus luteus): inactive | growth inhibition (GI) (Escherichia coli): inactive | growth inhibition (GI) (Pseudomonas aeruginosa): inactive

CN[C@@H](Cc1ccccc1)C(=O)N(C)[C@H](C(=O)N(C)[C@@H](CC(C)C)C(=O)N(C)[C@H](C(=O)NCCc1ccccc1)C(C)C)C(C)C (H-[NMeF][NMeV][NMeL][NMeV]-NHPhenethyl)
IC50 (Plasmodium falciparum): 0.1 µg/mL (≈ 0.157 µM)

CN[C@H](C(=O)N(C)[C@H](C(=O)N(C)[C@H](C(=O)N(C)[C@H](C(=O)N(C)[C@H](C(=O)N(C)[C@@H](CC(C)C)C(=O)NCCc1ccccc1)C(C)C)C(C)C)C(C)C)C(C)C)C(C)C (H-[NMeV][NMeV][NMeV][NMeV][NMeV][NMeL]-NHPhenethyl)
growth inhibition (GI) (Staphylococcus aureus [2]): inactive | growth inhibition (GI) (Staphylococcus aureus [3]): inactive | growth inhibition (GI) (Enterococcus faecalis): inactive | growth inhibition (GI) (Micrococcus luteus): inactive | growth inhibition (GI) (Escherichia coli): inactive | growth inhibition (GI) (Pseudomonas aeruginosa): inactive

CC(C)C[C@@H](N)C(=O)N[C@@H](CC(C)C)C(=O)N(C)[C@@H](CC(C)C)C(=O)N(C)[C@@H](CC(C)C)C(=O)NCCc1ccccc1
IC50 [1]: 1.4 to 2.1 µg/mL (≈ 2.33 to 3.49 µM)

CN[C@@H](CC(C)C)C(=O)N(C)[C@@H](CC(C)C)C(=O)N(C)[C@@H](CC(C)C)C(=O)N(C)[C@@H](CC(C)C)C(=O)NCCc1c[nH]c2ccccc12 (H-[NMeL][NMeL][NMeL][NMeL]-Tryptamide)
IC50 (Plasmodium falciparum): 0.6 µg/mL (≈ 0.897 µM)

CN[C@@H](CC(C)C)C(=O)N(C)[C@@H](CC(C)C)C(=O)N(C)[C@@H](CC(C)C)C(=O)N(C)[C@@H](CC(C)C)C(=O)N(C)[C@@H](CC(C)C)C(=O)N(C)[C@@H](CC(C)C)C(=O)NCCc1ccccc1 (H-[NMeL][NMeL][NMeL][NMeL][NMeL][NMeL]-NHPhenethyl)
Activity [1]: Active | growth inhibition (GI) (Staphylococcus aureus [2]): inactive | growth inhibition (GI) (Staphylococcus aureus [3]): inactive | growth inhibition (GI) (Enterococcus faecalis): inactive | growth inhibition (GI) (Micrococcus luteus): inactive | growth inhibition (GI) (Escherichia coli): inactive | growth inhibition (GI) (Pseudomonas aeruginosa): inactive

CN[C@H](C(=O)N(C)[C@H](C(=O)N(C)[C@H](C(=O)N(C)[C@@H](Cc1ccccc1)C(=O)NCCc1ccccc1)C(C)C)C(C)C)C(C)C (H-[NMeV][NMeV][NMeV][NMeF]-NHPhenethyl)
permeability [4]: Permeable

CN[C@H](C(=O)N(C)[C@H](C(=O)N(C)[C@H](C(=O)N(C)[C@H](C(=O)N(C)[C@H](C(=O)N(C)[C@H](C(=O)N(C)[C@H](C(=O)NCCc1ccccc1)C(C)C)C(C)C)C(C)C)C(C)C)C(C)C)C(C)C)C(C)C (H-[NMeV][NMeV][NMeV][NMeV][NMeV][NMeV][NMeV]-NHPhenethyl)
Activity [1]: Active

CN[C@@H](CC(C)C)C(=O)N(C)[C@@H](CC(C)C)C(=O)N(C)[C@@H](CC(C)C)C(=O)N(C)[C@@H](CC(C)C)C(=O)NCCc1cccc2ccccc12 (H-[NMeL][NMeL][NMeL][NMeL]-{NH(2-(1-naphthyl)ethyl)})
IC50 [1]: 1 µg/mL (≈ 1.47 µM)

CN[C@H](C(=O)N(C)[C@H](C(=O)N(C)[C@H](C(=O)N(C)[C@H](C(=O)N(C)[C@H](C(=O)N(C)[C@@H](Cc1ccccc1)C(=O)NCCc1ccccc1)C(C)C)C(C)C)C(C)C)C(C)C)C(C)C (H-[NMeV][NMeV][NMeV][NMeV][NMeV][NMeF]-NHPhenethyl)
growth inhibition (GI) (Staphylococcus aureus [2]): inactive | growth inhibition (GI) (Staphylococcus aureus [3]): inactive | growth inhibition (GI) (Enterococcus faecalis): inactive | growth inhibition (GI) (Micrococcus luteus): inactive | growth inhibition (GI) (Escherichia coli): inactive | growth inhibition (GI) (Pseudomonas aeruginosa): inactive

CN[C@@H](CC(C)C)C(=O)N(C)[C@@H](CC(C)C)C(=O)N(C)[C@@H](CC(C)C)C(=O)N(C)[C@@H](CS)C(=O)NCCc1cccc2ccccc12 (H-[NMeL][NMeL][NMeL][NMeC]-{NH(2-(1-naphthyl)ethyl)})
IC50 [1]: 7.5 µg/mL (≈ 11.2 µM)

CN[C@@H](CC(C)C)C(=O)N(C)[C@@H](CC(C)C)C(=O)N(C)[C@H](CC(C)C)C(=O)N(C)[C@@H](CC(C)C)C(=O)NCCc1ccccc1
IC50 [1]: 17.5 µg/mL (≈ 27.8 µM)

CN[C@@H](C)C(=O)N(C)[C@@H](CC(C)C)C(=O)N(C)[C@@H](CC(C)C)C(=O)N(C)[C@@H](CC(C)C)C(=O)NCCc1ccccc1 (H-[NMeA][NMeL][NMeL][NMeL]-NHPhenethyl)
IC50 (Plasmodium falciparum): 1.85 µg/mL (≈ 3.15 µM)

CN[C@H](CC(C)C)C(=O)N(C)[C@@H](CC(C)C)C(=O)N(C)[C@@H](CC(C)C)C(=O)N(C)[C@@H](CC(C)C)C(=O)NCCc1ccccc1
IC50 [1]: 1.4 to 2.1 µg/mL (≈ 2.22 to 3.33 µM)

CN[C@H](C(=O)N(C)[C@H](C(=O)N(C)[C@H](C(=O)N(C)[C@H](C(=O)N(C)[C@H](C(=O)NCCc1ccccc1)C(C)C)C(C)C)C(C)C)C(C)C)C(C)C (H-[NMeV][NMeV][NMeV][NMeV][NMeV]-NHPhenethyl)
Activity [1]: Active

CC(C)C[C@@H](NC=O)C(=O)N[C@@H]1C(=O)N[C@H](Cc2ccccc2)C(=O)N[C@H](C(C)C)C(=O)N[C@@H](Cc2ccc(O)cc2)C(=O)N[C@@H](Cc2c[nH]c3ccccc23)C(=O)O[C@@H]1C
IC50 (Plasmodium falciparum): 0.995 µg/mL (≈ 1.19 µM)

CN[C@H](CC(C)C)C(=O)N(C)[C@H](CC(C)C)C(=O)N(C)[C@H](CC(C)C)C(=O)N(C)[C@H](CC(C)C)C(=O)NCCc1ccccc1
IC50 [1]: 1.4 to 2.1 µg/mL (≈ 2.22 to 3.33 µM)

CN[C@H](C(=O)N(C)[C@H](C(=O)N(C)[C@H](C(=O)N(C)[C@@H](CC(C)C)C(=O)NCCc1ccccc1)C(C)C)C(C)C)C(C)C (H-[NMeV][NMeV][NMeV][NMeL]-NHPhenethyl)
permeability [4]: Permeable | half-life at 500 µM [5]: > 240 min

CN[C@@H](CC(C)C)C(=O)N(C)[C@@H](CC(C)C)C(=O)N(C)[C@@H](CC(C)C)C(=O)N(C)[C@@H](CS)C(=O)NCCc1ccccc1 (H-[NMeL][NMeL][NMeL][NMeC]-NHPhenethyl)
IC50 [1]: 5.6 µg/mL (≈ 9.03 µM)

CN[C@H](C(=O)N(C)[C@H](C(=O)N(C)[C@H](C(=O)N(C)[C@H](C(=O)N(C)[C@H](C(=O)N(C)[C@H](C(=O)NCCc1ccccc1)C(C)C)C(C)C)C(C)C)C(C)C)C(C)C)C(C)C (H-[NMeV][NMeV][NMeV][NMeV][NMeV][NMeV]-NHPhenethyl)
Activity [1]: Active | growth inhibition (GI) (Staphylococcus aureus [2]): inactive | growth inhibition (GI) (Staphylococcus aureus [3]): inactive | growth inhibition (GI) (Enterococcus faecalis): inactive | growth inhibition (GI) (Micrococcus luteus): inactive | growth inhibition (GI) (Escherichia coli): inactive | growth inhibition (GI) (Pseudomonas aeruginosa): inactive

CN[C@@H](Cc1ccccc1)C(=O)N[C@H](C(=O)N(C)[C@H](C(=O)N(C)[C@H](C(=O)N(C)[C@H](C(=O)N(C)[C@@H](Cc1ccccc1)C(=O)NCCc1ccccc1)C(C)C)C(C)C)C(C)C)C(C)C (H-[NMeF]V[NMeV][NMeV][NMeV][NMeF]-NHPhenethyl)
IC50 (Plasmodium falciparum): 0.14 µg/mL (≈ 0.159 µM)

CN[C@@H](Cc1ccccc1)C(=O)N(C)[C@@H](Cc1ccccc1)C(=O)N(C)[C@@H](Cc1ccccc1)C(=O)N(C)[C@@H](Cc1ccccc1)C(=O)NCCc1ccccc1 (H-[NMeF][NMeF][NMeF][NMeF]-NHPhenethyl)
Activity [1]: Active

CC(C)[C@H](N)C(=O)N[C@H](C(=O)N[C@H](C(=O)N[C@@H](Cc1ccccc1)C(=O)NCCc1ccccc1)C(C)C)C(C)C (H-VVVF-NHPhenethyl)
permeability [4]: Impermeable

CN[C@@H](CC(C)C)C(=O)N(C)[C@@H](CC(C)C)C(=O)N(C)[C@@H](CC(C)C)C(=O)N(C)[C@@H](CC(C)C)C(=O)N(C)[C@H](CC(C)C)C(=O)NCCc1ccccc1
IC50 [1]: 1.4 to 2.1 µg/mL (≈ 1.85 to 2.77 µM)

CCC(C)[C@H]1NC(=O)[C@@H](C(C)C)NC(=O)[C@H]([C@@H](C)O)NC(=O)[C@H](Cc2c[nH]c3ccccc23)NC(=O)[C@@H](NC(C)=O)[C@@H](C)OC(=O)[C@H](CC(C)C)NC1=O (some centres undefined)
IC50 [1]: 31.6 µg/mL (≈ 41.9 µM)

CN[C@@H](Cc1ccccc1)C(=O)N(C)[C@@H](Cc1ccccc1)C(=O)N(C)[C@@H](Cc1ccccc1)C(=O)N(C)[C@@H](Cc1ccccc1)C(=O)N(C)[C@@H](Cc1ccccc1)C(=O)N(C)[C@@H](Cc1ccccc1)C(=O)NCCc1ccccc1 (H-[NMeF][NMeF][NMeF][NMeF][NMeF][NMeF]-NHPhenethyl)
Activity [1]: Active

CC(C)C[C@H](NC(=O)[C@@H](NC(=O)[C@@H](NC(=O)[C@@H](N)C(C)C)C(C)C)C(C)C)C(=O)NCCc1ccccc1 (H-VVVL-NHPhenethyl)
permeability [4]: Impermeable | half-life at 500 µM [5]: 30 min
